Laboratory results from patent publication US6448256B1, “Antibiotic prodrugs” (University of Massachusetts, priority 1999, dated 2002).
Converted amounts (≈) assume the structure as drawn. Like-named read-outs stand apart in the source and are kept apart here.

Experiments:
[1] = system: B. subtilis; assay: Antibacterial activity of crude compounds made by small scale synthesis; format: cell-based; conditions: crude reaction mixtures dissolved in DMSO, assayed directly
Experimental: 6-Anilinouracils were synthesized using small scale synthetic methods. One milligram quantities of 3-(3-methoxypropyl)-6-chlorouracil were heated with 42 substituted anilines in micro-test tubes at 130° C. for 20 minutes. The reaction mixtures were dissolved in DMSO and assayed directly for antibacterial activity.

[2] = system: E. coli; assay: MIC against E. coli (Gram-negative control); format: cell-based; conditions: Table 2
Experimental: (§1) To further investigate the antibacterial and/or DNA pol III inhibitory activity of various drug compounds, various ester-containing moieties N-linked to the EMAU core were produced as described in Example 1. These prodrugs were assayed for inhibition of B. subtilis DNA pol III and antibiotic activity against a number of bacteria.
(§2) The minimal inhibitory concentrations (MICs) of the four N3-substituted agents and EMAU were determined for B. subtilis (BS), methicillin-sensitive and resistant S. aureus (SA & MRSA), vancomycin-sensitive and resistant E. fecalis (EF& VREF), vancomycin-resistant E. fecium (VREF*), and E. coli (EC) as a Gram-negative control.

[3] = system: S. aureus; assay: MIC against S. aureus (methicillin-sensitive); format: cell-based; conditions: for MIC S. aureus: Table 2; for MIC: Staphylococcus aureus, read-out: MIC S. aureas
Experimental: as §1, §2

[4] = system: vancomycin-resistant E. fecium; assay: MIC against vancomycin-resistant E. fecium (VRE, VREF*); format: cell-based; conditions: Table 2, vancomycin-resistant E. fecium
Experimental: as §1, §2

[5] = system: E. fecalis; assay: MIC against E. fecalis; format: cell-based; conditions: for MIC E. fecalis: Table 2; for MIC: Table 6, read-out: MIC E. fecalis
Experimental: as §1, §2

[6] = system: MRSA; assay: MIC against methicillin-resistant S. aureus strain MRSA / MRSA1; format: cell-based; conditions: Table 2
Experimental: as §1, §2

[7] = system: B. subtilis; assay: MIC against B. subtilis; format: cell-based; conditions: for MIC B. subtilis: Table 2; for MIC: Bacillus subtilis, Table 6, read-out: MIC B. subtilis
Experimental: as §1, §2

[8] = system: E. fecium; assay: MIC against E. fecium; format: cell-based; conditions: Table 2
Experimental: as §1

[9] = system: MRSA2; assay: MIC against methicillin-resistant S. aureus strain MRSA2; format: cell-based; conditions: Table 2
Experimental: as §1, §2

[10] = target: B. subtilis DNA pol III (Bacillus subtilis, UniProt P13267); assay: Inhibition of B. subtilis DNA pol III (Ki); format: biochemical
Experimental: as §1
The competitive inhibitor constants (Ki) of selected EMAU compounds were determined with three different pol Ills: the pol III enzyme from Bacillus subtilis (BS pol III), and the pol III enzymes of the clinically relevant pathogens, Enterococcus fecalis (EF pol III) and Staphylococcus aureus (SA pol 111).

[11] = Table 2, prodrugs having the EMAU core, read-out: Ki B. subtilis DNA Pol III
[12] = Table 6, read-out: Ki, inhibition constant vs. B. subtilis DNA pol III

Chain of B. subtilis DNA pol III (P13267 whole entry): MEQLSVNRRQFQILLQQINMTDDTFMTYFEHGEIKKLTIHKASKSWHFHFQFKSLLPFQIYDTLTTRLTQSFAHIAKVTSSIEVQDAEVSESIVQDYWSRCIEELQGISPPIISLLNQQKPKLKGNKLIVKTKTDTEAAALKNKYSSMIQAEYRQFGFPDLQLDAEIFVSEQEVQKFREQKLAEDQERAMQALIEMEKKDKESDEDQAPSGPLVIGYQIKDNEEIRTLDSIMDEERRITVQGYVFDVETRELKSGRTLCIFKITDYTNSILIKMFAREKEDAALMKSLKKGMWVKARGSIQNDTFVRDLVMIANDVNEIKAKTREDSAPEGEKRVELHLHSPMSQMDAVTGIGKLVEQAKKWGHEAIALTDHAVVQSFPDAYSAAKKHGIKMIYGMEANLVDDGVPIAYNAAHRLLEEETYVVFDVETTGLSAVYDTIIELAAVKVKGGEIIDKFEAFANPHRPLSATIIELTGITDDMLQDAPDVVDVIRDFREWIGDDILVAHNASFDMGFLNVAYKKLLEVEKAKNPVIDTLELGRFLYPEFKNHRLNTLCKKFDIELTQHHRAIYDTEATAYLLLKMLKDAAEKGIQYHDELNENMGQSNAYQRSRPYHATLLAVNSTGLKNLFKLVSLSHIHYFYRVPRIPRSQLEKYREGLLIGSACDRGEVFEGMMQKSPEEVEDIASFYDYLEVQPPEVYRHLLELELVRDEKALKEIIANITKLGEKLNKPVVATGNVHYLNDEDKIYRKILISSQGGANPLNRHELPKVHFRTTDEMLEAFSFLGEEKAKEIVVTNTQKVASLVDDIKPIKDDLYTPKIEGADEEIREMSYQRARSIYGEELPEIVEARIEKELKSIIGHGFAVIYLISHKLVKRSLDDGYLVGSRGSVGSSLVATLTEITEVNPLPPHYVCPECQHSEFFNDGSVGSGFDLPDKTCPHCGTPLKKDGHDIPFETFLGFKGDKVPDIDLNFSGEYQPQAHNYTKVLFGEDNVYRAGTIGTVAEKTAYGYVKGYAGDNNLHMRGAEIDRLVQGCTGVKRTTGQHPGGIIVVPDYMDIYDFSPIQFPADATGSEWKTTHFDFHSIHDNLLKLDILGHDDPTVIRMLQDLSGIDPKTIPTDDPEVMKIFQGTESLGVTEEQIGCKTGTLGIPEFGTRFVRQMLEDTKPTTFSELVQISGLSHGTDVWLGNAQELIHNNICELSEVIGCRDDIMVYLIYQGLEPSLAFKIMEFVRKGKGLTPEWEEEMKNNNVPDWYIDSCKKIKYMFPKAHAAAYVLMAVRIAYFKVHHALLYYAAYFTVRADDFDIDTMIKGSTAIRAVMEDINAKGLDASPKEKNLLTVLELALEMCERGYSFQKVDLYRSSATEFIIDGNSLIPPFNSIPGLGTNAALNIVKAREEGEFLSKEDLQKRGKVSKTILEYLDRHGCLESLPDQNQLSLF

`COCCCn1c(=O)cc(Nc2cc(C)cc(C)c2)[nH]c1=O` [3,5-diMe] was tested, and the “MIC B. subtilis” value [1] was 50 µg/mL (≈ 165 µM).
For `CCc1cc(Nc2cc(=O)n(CCCCOC(=O)C(N)CO)c(=O)[nH]2)ccc1C.Cl` (stereo not shown) [(CH2)4-OCOCH(CH2OH)NH3^+Cl^−], the “MIC E. coli” value [2] was greater than 20 μ/ml, the “MIC S. aureus” value [3] was greater than 20 μ/ml and the “MIC VRE” value [4] was 20 μ/ml. For the same compound, the “MIC E. fecalis” value [5] was 20 μ/ml, the “MIC MRSA” value [6] was greater than 20 μ/ml and the “MIC B. subtilis” value [7] was 10 μ/ml. The “MIC E. fecium” value [8] was 20 μ/ml, the “MIC MRSA2” value [9] was greater than 20 μ/ml and the Ki [10, 11] was 10 nM.
In the case of `COCCCn1c(=O)cc(Nc2ccc(F)c(F)c2)[nH]c1=O` [3,4-diF], the “MIC B. subtilis” value [1] is reported as greater than 100 µg/mL.
`COCCCn1c(=O)cc(Nc2ccc(Cl)c(Cl)c2)[nH]c1=O` [3,4-diCl] was tested, and the “MIC B. subtilis” value [1] was 6.25 µg/mL (≈ 18.2 µM).
With `COCCCn1c(=O)cc(Nc2ccc(Cl)c(C(F)(F)F)c2)[nH]c1=O` [Compound 3-CF3-4-Cl] the “MIC B. subtilis” value [1] was greater than 100 µg/mL.
In the case of `COCCCn1c(=O)cc(Nc2ccc(Cl)cc2)[nH]c1=O` [Compound 4-Cl], the “MIC B. subtilis” value [1] is reported as 100 µg/mL (≈ 323 µM).
With `COCCCn1c(=O)cc(Nc2ccc(C)c(C)c2)[nH]c1=O` [3,4-diMe] the “MIC B. subtilis” value [1] was 6.26 µg/mL (≈ 20.6 µM).
With `CCc1cc(Nc2cc(=O)n(CCCCOC(=O)C(C)N)c(=O)[nH]2)ccc1C` (stereo not shown) [(CH2)4-OCOCHCH3NH3^+Cl^−] the “MIC E. coli” value [2] was greater than 20 μ/ml, the “MIC S. aureus” value [3] was 20 μ/ml and the “MIC VRE” value [4] was 10 μ/ml. The “MIC E. fecalis” value [5] was 10 μ/ml, the “MIC MRSA” value [6] was 20 μ/ml and the “MIC B. subtilis” value [7] was 2.5 μ/ml. For the same compound, the “MIC E. fecium” value [8] was 10 μ/ml, the “MIC MRSA2” value [9] was 20 μ/ml and the Ki [10, 11] was 180 nM.
With `COCCCn1c(=O)cc(Nc2cc(Cl)cc(Cl)c2)[nH]c1=O` [3,5-diCl] the “MIC B. subtilis” value [1] was greater than 100 µg/mL.
With `COCCCn1c(=O)cc(Nc2cc(F)c(F)c(F)c2)[nH]c1=O` [3,4,5-triF] the “MIC B. subtilis” value [1] was greater than 100 µg/mL.
Compound `Cc1ccc(Nc2cc(=O)n(CCCCI)c(=O)[nH]2)cc1I` [IB-IMAU] has an MIC [3] of 6 µg/mL (≈ 11.4 µM), an MIC [5] of 6 µg/mL (≈ 11.4 µM) and an MIC [7] of less than 3.1 µg/mL. For the same compound, the Ki [10, 12] was 660 nM.
For `CCc1cc(Nc2cc(=O)n(CCCCOC(=O)C3CCCN3C(=O)OC(C)(C)C)c(=O)[nH]2)ccc1C` (stereo not shown) [(CH2)4-OCOCH(CH2)3NH-Boc], the “MIC E. coli” value [2] was greater than 20 μ/ml, the “MIC S. aureus” value [3] was 10 μ/ml and the “MIC VRE” value [4] was 10 μ/ml. For the same compound, the “MIC E. fecalis” value [5] was 10 μ/ml, the “MIC MRSA” value [6] was 20 μ/ml and the “MIC B. subtilis” value [7] was less than 1.25 μ/ml. The “MIC E. fecium” value [8] was 10 μ/ml, the “MIC MRSA2” value [9] was 10 μ/ml and the Ki [10, 11] was 3200 nM.
`CCc1cc(Nc2cc(=O)n(CCCCI)c(=O)[nH]2)ccc1C` [IB-EMAU, 3-(4-iodobutyl)-6-(3-ethyl-4-methylanilino)uracil] gave an MIC [3] of 12 µg/mL (≈ 28.1 µM), an MIC [5] of 6 µg/mL (≈ 14 µM) and an MIC [7] of less than 3.1 µg/mL. It also gave a Ki [10, 12] of 360 nM.
For `COCCCn1c(=O)cc(Nc2ccc(C)c(Cl)c2)[nH]c1=O` [Compound 3-Cl-4-Me], the “MIC B. subtilis” value [1] was 3.13 µg/mL (≈ 9.67 µM).
`COCCCn1c(=O)cc(Nc2ccc(C)c(CO)c2)[nH]c1=O` [Compound 3-CH2OH-4-Me] was tested, and the “MIC B. subtilis” value [1] was greater than 100 µg/mL.
For `COCCCn1c(=O)cc(Nc2ccc(CC(C)C)cc2)[nH]c1=O` [Compound 4-iBU], the “MIC B. subtilis” value [1] was greater than 100 µg/mL.
For `COCCCn1c(=O)cc(Nc2cccc([N+](=O)[O-])c2)[nH]c1=O` [Compound 3-NO2], the “MIC B. subtilis” value [1] was greater than 100 µg/mL.
With `CCCc1ccc(Nc2cc(=O)n(CCCOC)c(=O)[nH]2)cc1` [Compound 4-Pr] the “MIC B. subtilis” value [1] was greater than 100 µg/mL.
For `COCCCn1c(=O)cc(Nc2ccc(OC)c(Cl)c2)[nH]c1=O` [Compound 3-Cl-4-OMe], the “MIC B. subtilis” value [1] was 50 µg/mL (≈ 147 µM).
In the case of `COCCCn1c(=O)cc(Nc2cccc(I)c2)[nH]c1=O` [Compound 3-I], the “MIC B. subtilis” value [1] is reported as 25 µg/mL (≈ 62.3 µM).
For `COCCCn1c(=O)cc(Nc2cccc(C#N)c2)[nH]c1=O` [Compound 3-CN], the “MIC B. subtilis” value [1] was greater than 100 µg/mL.
With `COCCCn1c(=O)cc(Nc2ccc(F)cc2)[nH]c1=O` [Compound 4-F] the “MIC B. subtilis” value [1] was greater than 100 µg/mL.
In the case of `CCc1cc(Nc2cc(=O)n(CCCCOC(=O)C(CO)NC(=O)OC(C)(C)C)c(=O)[nH]2)ccc1C` (stereo not shown) [(CH2)4-OCOCH(CH2OH)NH-Boc], the “MIC E. coli” value [2] is reported as greater than 20 μ/ml, the “MIC S. aureus” value [3] is reported as 20 μ/ml and the “MIC VRE” value [4] is reported as 5 μ/ml. The “MIC E. fecalis” value [5] was 5 μ/ml, the “MIC MRSA” value [6] was 20 μ/ml and the “MIC B. subtilis” value [7] was 5 μ/ml. For the same compound, the “MIC E. fecium” value [8] was 10 μ/ml, the “MIC MRSA2” value [9] was 20 μ/ml and the Ki [10, 11] was 1500 nM.
